Experiment: xn = mol fraction of the nth substance listed

CCCCCCCCn1cc[n+](C)c1.F[B-](F)(F)F + CCCCCCCCn1cc[n+](C)c1.[Cl-]
101 kPa
Details | electrical conductivity [S/m] | viscosity [mPa·s]
303 K, x2 = 0 | 0.0817 | –
303 K, x2 = 0.8 | 0.00551 | –
303.15 K, x2 = 0 | – | 258
303.15 K, x2 = 0.4 | – | 1093
308 K, x2 = 0.8 | 0.00853 | –
313 K, x2 = 0.6 | 0.0233 | –
318 K, x2 = 0 | 0.172 | –
318 K, x2 = 0.2 | 0.106 | –
318 K, x2 = 0.6 | 0.0327 | –
318.15 K, x2 = 0.8 | – | 1486
323 K, x2 = 0.6 | 0.0452 | –
328 K, x2 = 0.2 | 0.17 | –
333 K, x2 = 0 | 0.322 | –
333.15 K, x2 = 0 | – | 61

CCCCCC[n+]1ccn(C)c1.N#Cc1ccc[n-]1 + CCCCCCCCCCCCCC[P+](CCCCCC)(CCCCCC)CCCCCC.O=S(=O)([N-]S(=O)(=O)C(F)(F)F)C(F)(F)F
283.15 K, 100 kPa
Details | viscosity [mPa·s]
x2 = 0 | 900
x2 = 0.1 | 890
x2 = 0.2 | 880
x2 = 0.501 | 850
x2 = 0.601 | 880
x2 = 0.7 | 850
x2 = 0.8 | 870
x2 = 0.9 | 810

CCCC[P+](CC)(CCCC)CCCC.F[B-](F)(F)F + CC#N
viscosity [mPa·s], 100 kPa
Details | x1 = 0.004068 | x1 = 0.008179 | x1 = 0.01204 | x1 = 0.01601 | x1 = 0.01998 | x1 = 0.02358 | x1 = 0.02792 | x1 = 0.03171 | x1 = 0.03517 | x1 = 0.03939
293.15 K | 0.373 | 0.392 | 0.411 | 0.431 | 0.452 | 0.473 | 0.497 | 0.521 | 0.542 | 0.57
298.15 K | 0.355 | 0.374 | 0.391 | 0.41 | 0.429 | 0.448 | 0.471 | 0.494 | 0.513 | 0.539
303.15 K | 0.34 | 0.357 | 0.373 | 0.391 | 0.409 | 0.426 | 0.448 | 0.469 | 0.486 | 0.511
308.15 K | 0.326 | 0.342 | 0.356 | 0.372 | 0.389 | 0.406 | 0.426 | 0.446 | 0.462 | 0.486
313.15 K | 0.313 | 0.327 | 0.341 | 0.356 | 0.372 | 0.389 | 0.406 | 0.424 | 0.44 | 0.463
318.15 K | 0.3 | 0.313 | 0.326 | 0.341 | 0.356 | 0.37 | 0.387 | 0.404 | 0.419 | 0.44

CCCC[n+]1ccn(C)c1.COP(=O)([O-])OC + CCC(=O)O.CCC(=O)[O-].CC[NH+](CC)CCO
101 kPa, x2 = 0
Details | viscosity [mPa·s]
283.15 K | 2142
328.15 K | 100.9
343.15 K | 52.35
373.15 K | 19.25

CCCCCCCC[N+](C)(CCCCCCCC)CCCCCCCC.O=S(=O)([N-]S(=O)(=O)C(F)(F)F)C(F)(F)F + O
100 kPa, x1 = 0.8468
Details | viscosity [mPa·s]
313.15 K | 239
343.15 K | 65

CC(C)O + CS(=O)(=O)[O-].C[N+](C)(CCO)CCO
101 kPa, x2 = 0
Details | viscosity [mPa·s]
298.15 K | 2.08
303.15 K | 1.79
308.15 K | 1.546
313.15 K | 1.343
318.15 K | 1.189
323.15 K | 1.056

CCCC[n+]1ccn(C)c1.[Cl-] + CN(C)C=O
101 kPa
Details | electrical conductivity [S/m] | viscosity [mPa·s]
293.15 K, x2 = 0.9 | – | 3.4
298.15 K, x1 = 0.0172 | – | 0.98
298.15 K, x2 = 0.5541 | 0.322 | 41.1
298.15 K, x2 = 0.975 | 0.574 | 0.96
303.15 K, x2 = 0.5056 | – | 52.3
303.15 K, x2 = 0.6034 | – | 21.3
303.15 K, x2 = 0.7982 | – | 4.15
303.15 K, x2 = 0.9503 | – | 1.14
308.15 K, x1 = 0.0086 | – | 0.82
308.15 K, x2 = 0.8014 | – | 3.51
308.15 K, x2 = 0.8999 | – | 1.53
308.15 K, x2 = 0.974 | – | 0.94

F[P-](F)(F)(F)(F)F.[Li+] + CCCC[n+]1ccn(C)c1.N#C[N-]C#N
electrical conductivity [S/m], 101 kPa
Details | x2 = 0.8823 | x2 = 0.8953 | x2 = 0.9172 | x2 = 0.9531 | x2 = 0.9799
288.15 K | – | 0.307 | 0.39 | 0.482 | 0.585
298.15 K | 0.488 | 0.522 | 0.633 | 0.771 | 0.909
333.15 K | 1.63 | 1.68 | 1.97 | 2.24 | 2.58

CCCCCCCCn1cc[n+](C)c1.[Br-] + NC(N)=O + O
298.15 K, 100 kPa
Details | viscosity [mPa·s]
x2 = 0, x3 = 0.9008 | 31.3
x2 = 0, x3 = 0.9487 | 7.96
x2 = 0.008063, x3 = 0.8927 | 31.3
x2 = 0.008505, x3 = 0.9402 | 7.68
x2 = 0.01609, x3 = 0.8847 | 31.2
x2 = 0.02499, x3 = 0.9237 | 7.49
x2 = 0.03154, x3 = 0.8693 | 30.7
x2 = 0.03316, x3 = 0.9155 | 7.32
x2 = 0.03874, x3 = 0.8621 | 30.7
x2 = 0.04082, x3 = 0.9079 | 7.14

From the CheMixHub ionic liquid set
